According to patent US11179412B2, “Methods of treating conditions involving elevated inflammatory response” (University of Pittsburgh—Of the Commonwealth System of …, priority 2017, dated 2021):
Structures can show the parent of a compound that is named as a salt.

Tested on: STING activation (IFNβ release) in iBMDMs
Test: IFNβ release ELISA after STING ligand (or LPS) stimulation, iBMDMs
Assay type: cell-based, mouse
Conditions: iBMDMs; 3′3′-cGAMP 10 μg/ml, 16 hours; compound 10 μM
Excerpt: Commercially available enzyme-linked immunosorbent assay (ELISA) kits were used to measure the concentrations of mouse IFNβ (Thermo Fisher Scientific) or human IFNβ (Thermo Fisher Scientific) in culture medium according to the manufacturer's instructions. […]

O=C(/C=C/c1cccc(S(=O)(=O)Nc2ccccc2)c1)NO [Belinostat (PXD101), Belinostat]
fold increase in IFN-β release: 0.70 fold

COc1c(O)cc2c(c1O)[C@@H]1O[C@H](CO)[C@@H](O)[C@H](O)[C@H]1OC2=O [Bergenin]
fold increase in IFN-β release: 0.57 fold

CC[C@H](NC(=O)[C@H](C)NC)C(=O)N1C[C@@H](O)C[C@H]1Cc1c(-c2[nH]c3cc(F)ccc3c2C[C@@H]2C[C@H](O)CN2C(=O)[C@H](CC)NC(=O)[C@H](C)NC)[nH]c2cc(F)ccc12 [Birinapant]
fold increase in IFN-β release: 1.15 fold

CC(C)NCC(O)COc1ccc(COCCOC(C)C)cc1 (stereo not drawn) [Bisoprolol fumarate]
fold increase in IFN-β release: 0.70 fold

CC(C)C[C@H](NC(=O)[C@H](Cc1ccccc1)NC(=O)c1cnccn1)B(O)O [Bortezomib (PS-341), Bortezomib]
fold increase in IFN-β release: 0.37 fold

COc1ccccc1Oc1c(NS(=O)(=O)c2ccc(C(C)(C)C)cc2)nc(-c2ncccn2)nc1OCCO [Bosentan Hydrate]
fold increase in IFN-β release: 1.20 fold

COc1cc(Nc2c(C#N)cnc3cc(OCCCN4CCN(C)CC4)c(OC)cc23)c(Cl)cc1Cl [Bosutinib (SKI-606), Bosutinib]
fold increase in IFN-β release: 1.78 fold

CCN[C@H]1CN(CCCOC)S(=O)(=O)c2sc(S(N)(=O)=O)cc21 [Brinzolamide]
fold increase in IFN-β release: 1.93 fold

CCCCN1CCCCC1C(=O)Nc1c(C)cccc1C (stereo not drawn) [Bupivacaine HCl]
fold increase in IFN-β release: 0.42 fold

NC1(Cc2ccc(Cl)cc2)CCN(c2ncnc3[nH]ccc23)CC1 [CCT128930]
fold increase in IFN-β release: 1.46 fold

CC(C)C[C@H](NC(=O)[C@@H](NC(=O)c1cccc(-c2ccccc2)n1)[C@@H](C)O)B(O)O [CEP-18770 (Delanzomib), Delanzomib]
fold increase in IFN-β release: 0.82 fold

Cc1c(NC(=O)c2ccc(C(C)(C)C)cc2)cccc1-c1cn(C)c(=O)c(Nc2ccc(C(=O)N3CCOCC3)cc2)n1 [CG11746]
fold increase in IFN-β release: 0.16 fold

O=C(NC(NC(=S)Nc1ccc(F)c([N+](=O)[O-])c1)C(Cl)(Cl)Cl)C(c1ccccc1)c1ccccc1 (stereo not drawn) [CGK 733]
fold increase in IFN-β release: 2.50 fold

Nc1ncnc2n[nH]c(Nc3ccc(F)cc3)c12 [CGP 57380]
fold increase in IFN-β release: 0.54 fold

CCNC(=O)[C@H]1O[C@@H](n2cnc3c(N)nc(NCCc4ccc(CCC(=O)O)cc4)nc32)[C@H](O)[C@@H]1O [CGS 21680 HCl]
fold increase in IFN-β release: 2.00 fold

O=c1[nH]c2ccc(Cl)cc2c(N[C@@H]2CN3CCC2CC3)c1-c1nc2ccccc2[nH]1 [CHIR-124]
fold increase in IFN-β release: 1.30 fold

Cc1[nH]c2ccccc2c1CCNC(=O)c1cccs1 [CK-636]
fold increase in IFN-β release: 2.06 fold

C=CC(=O)Nc1cccc(Nc2nc(Nc3ccc(Oc4ccnc(C(=O)NC)c4)cc3)ncc2F)c1 [CNX-774]
fold increase in IFN-β release: 0.73 fold

C=CC(=O)Nc1cccc(Nc2nc(Nc3ccc(NC4CN(CCF)C4)cc3OC)ncc2C(F)(F)F)c1 [CNX-2006]
fold increase in IFN-β release: 1.93 fold

CN(C)C(=O)[C@H](O)[C@H](Cc1ccccc1)NC(=O)c1cc2cc(Cl)ccc2[nH]1 [CP-91149]
fold increase in IFN-β release: 0.14 fold

COCCOc1ccc2c(c1)ncn2-c1ccc2cccc(N3CCC(N)CC3)c2n1 [CP-673451]
fold increase in IFN-β release: 0.27 fold

O=C(O)c1cc2cccc([N+](=O)[O-])c2[nH]1 [CRT0044876]
fold increase in IFN-β release: 2.75 fold

O=C(O)c1cc(I)ccc1NC(=O)[C@H](Cc1ccccc1)NCc1ccccc1 [CW069]
fold increase in IFN-β release: 4.03 fold

O=C(/C=C/c1ccc(O)c(O)c1)OCCc1ccccc1 [Caffeic Acid Phenethyl Ester]
fold increase in IFN-β release: 0.44 fold

Cc1ccc([C@@H]2O[C@H](CO)[C@@H](O)[C@H](O)[C@H]2O)cc1Cc1ccc(-c2ccc(F)cc2)s1 [Canagliflozin]
fold increase in IFN-β release: 1.58 fold

CCOc1nc2cccc(C(=O)O)c2n1Cc1ccc(-c2ccccc2-c2nnn[nH]2)cc1 [Candesartan]
fold increase in IFN-β release: 2.31 fold

C[C@H](CS)C(=O)N1CCC[C@H]1C(=O)O [Captopril]
fold increase in IFN-β release: 2.62 fold

COc1ccccc1OCCNCC(O)COc1cccc2[nH]c3ccccc3c12 (stereo not drawn) [Carvedilol]
fold increase in IFN-β release: 1.87 fold

Cc1ccc(-c2cc(C(F)(F)F)nn2-c2ccc(S(N)(=O)=O)cc2)cc1 [Celecoxib]
fold increase in IFN-β release: 0.76 fold

COc1ccc([C@]2(C#N)CC[C@@H](C(=O)O)CC2)cc1OC1CCCC1 [Cilomilast]
fold increase in IFN-β release: 2.08 fold

C[C@@H](NCCCc1cccc(C(F)(F)F)c1)c1cccc2ccccc12 [Cinacalcet HCl]
fold increase in IFN-β release: 0.55 fold

CN1CCC[C@@H]1CCO[C@](C)(c1ccccc1)c1ccc(Cl)cc1 [Clemastine Fumarate]
fold increase in IFN-β release: 1.32 fold

C=C1C(=O)O[C@@H]2/C=C(\C)CC/C=C(\C)CC[C@@H]12 [Costunolide]
fold increase in IFN-β release: 0.37 fold

CC1(COc2ccc3c(c2)ncn3-c2ccc3cccc(N4CCC(N)CC4)c3n2)COC1 [Crenolanib (CP-868596), Crenolanib]
fold increase in IFN-β release: 0.32 fold

C[C@H]1COC2=C1C(=O)C(=O)c1c2ccc2c1CCCC2(C)C [Cryptotanshinone]
fold increase in IFN-β release: 0.17 fold

CC(=O)O[C@]1(C(C)=O)CC[C@H]2[C@@H]3C=C(Cl)C4=CC(=O)[C@@H]5C[C@@H]5[C@]4(C)[C@H]3CC[C@@]21C [Cyproterone Acetate]
fold increase in IFN-β release: 1.24 fold

c1ccc(CNc2nc(NCc3ccccc3)c3ccccc3n2)cc1 [DBeQ]
fold increase in IFN-β release: 2.18 fold

CNC(=O)c1cc(Oc2ccc(NC(=O)Nc3cc(C(C)(C)C)nn3-c3ccc4ncccc4c3)c(F)c2)ccn1 [DCC-2036 (Rebastinib), Rebastinib]
fold increase in IFN-β release: 1.71 fold

CC(C)Oc1ccc(-c2cnc3c(-c4ccnc5ccccc45)cnn3c2)cc1 [DMH1]
fold increase in IFN-β release: 1.43 fold

Cc1ccc2c(=O)c3cccc(CC(=O)O)c3oc2c1C [DMXAA (Vadimezan), 5,6-dimethylxanthenone-4-acetic acid]
fold increase in IFN-β release: 3.23 fold

CC(C)(C)c1nc(-c2cccc(NS(=O)(=O)c3c(F)cccc3F)c2F)c(-c2ccnc(N)n2)s1 [Dabrafenib (GSK2118436), Dabrafenib]
fold increase in IFN-β release: 0.86 fold

CCC(CC)CC1(C(=O)Nc2ccccc2SC(=O)C(C)C)CCCCC1 [Dalcetrapib (JTT-705, RO4607381), Dalcetrapib]
fold increase in IFN-β release: 0.13 fold

CCOc1ccc(Cc2cc([C@@H]3O[C@H](CO)[C@@H](O)[C@H](O)[C@H]3O)ccc2Cl)cc1 [Dapagliflozin]
fold increase in IFN-β release: 1.57 fold

COc1cccc2c1C(=O)c1c(O)c3c(c(O)c1C2=O)C[C@@](O)(C(C)=O)C[C@@H]3O[C@H]1C[C@H](N)[C@H](O)[C@H](C)O1 [Daunorubicin HCl]
fold increase in IFN-β release: 0.11 fold

COc1cc2nc(N3CCN(C(=O)C4COc5ccccc5O4)CC3)nc(N)c2cc1OC (stereo not drawn) [Doxazosin Mesylate]
fold increase in IFN-β release: 0.69 fold

C[C@]12C=CC(=O)N[C@@H]1CC[C@@H]1[C@@H]2CC[C@]2(C)[C@@H](C(=O)Nc3cc(C(F)(F)F)ccc3C(F)(F)F)CC[C@@H]12 [Dutasteride]
fold increase in IFN-β release: 0.51 fold

O=C(N/N=C/c1ccc(O)c(O)c1)c1cc2ccccc2cc1O [Dynasore]
fold increase in IFN-β release: 1.62 fold

CC(C)C[C@H](NC(=O)[C@H]1O[C@@H]1C(=O)O)C(=O)NCCCCN=C(N)N [E-64]
fold increase in IFN-β release: 0.17 fold

CCn1c2ccccc2c2cc(Nc3ccnc(NCCCN4CCOCC4)n3)ccc21 [EHop-016]
fold increase in IFN-β release: 1.69 fold

CCN(c1cc(-c2ccc(CN3CCOCC3)cc2)cc(C(=O)NCc2c(C)cc(C)[nH]c2=O)c1C)C1CCOCC1 [EPZ-6438]
fold increase in IFN-β release: 1.03 fold

COc1cccc(C=NCCN=Cc2cccc(OC)c2[O-])c1[O-].[Cl-].[Mn+3] [EUK 134]
fold increase in IFN-β release: 1.10 fold

NC(=O)C1CCCc2c1[nH]c1ccc(Cl)cc21 (stereo not drawn) [EX 527 (Selisistat), Selisistat]
fold increase in IFN-β release: 0.98 fold

COc1cc2c(cc1Cc1cccc(Cl)c1F)c(=O)c(C(=O)O)cn2[C@H](CO)C(C)C [Elvitegravir (GS-9137, JTK-303), Elvitegravir]
fold increase in IFN-β release: 2.56 fold

CCCCCCCCCCCC1=C(O)C(=O)C=C(O)C1=O [Embelin]
fold increase in IFN-β release: 0.17 fold

OC[C@H]1O[C@@H](c2ccc(Cl)c(Cc3ccc(O[C@H]4CCOC4)cc3)c2)[C@H](O)[C@@H](O)[C@@H]1O [Empagliflozin (BI 10773), Empagliflozin]
fold increase in IFN-β release: 0.57 fold

C[C@H](N[C@@H](CCc1ccccc1)C(=O)O)C(=O)N1CCC[C@H]1C(=O)O.O.O [Enalaprilat Dihydrate]
fold increase in IFN-β release: 2.71 fold

CCN(CC)C(=O)/C(C#N)=C/c1cc(O)c(O)c([N+](=O)[O-])c1 [Entacapone]
fold increase in IFN-β release: 0.76 fold

CNC(=O)c1ccc(N2C(=S)N(c3ccc(C#N)c(C(F)(F)F)c3)C(=O)C2(C)C)cc1F [Enzalutamide (MDV3100), Enzalutamide]
fold increase in IFN-β release: 0.50 fold

Cn1cc(C2=C(c3cn(C4CCN(Cc5ccccn5)CC4)c4ccccc34)C(=O)NC2=O)c2ccccc21 [Enzastaurin (LY317615), Enzastaurin]
fold increase in IFN-β release: 1.02 fold

CCOc1ccccc1-n1c(C(C)N2CCN(C(=O)COc3ccc(Cl)cc3)CC2)nc2ccccc2c1=O (stereo not drawn) [Erastin]
fold increase in IFN-β release: 4.52 fold

COc1ccc2nc([S@@+]([O-])Cc3ncc(C)c(OC)c3C)[nH]c2c1 [Esomeprazole Sodium]
fold increase in IFN-β release: 0.95 fold

CCc1cccc2c3c([nH]c12)C(CC)(CC(=O)O)OCC3 (stereo not drawn) [Etodolac]
fold increase in IFN-β release: 0.35 fold

CCOC(=O)c1cncn1[C@H](C)c1ccccc1 [Etomidate]
fold increase in IFN-β release: 0.86 fold
